Laboratory results from article PMC12040169 (PLOS Biology, 2025).

Assay: in vitro
Conditions: human, hela cells, % viability

Row | Compound | viability at 28.5 h, 10 µM [%]
1 | COc1ccc(CC(=O)N2CCC(c3cc4ncccc4[nH]3)CC2)cc1 [CBK283386] | 84.3
2 | CCCNC(=O)c1cc(C2CCCN(Cc3ccc(F)cc3)C2)no1 (centres unmarked) [CBK283387] | 94
3 | CCCNC(=O)c1cc(C2CCCN(Cc3ccccc3)C2)no1 (centres unmarked) [CBK283388] | 98
4 | CC(C)(C)NC(=O)NC1CCC2(CC1)CC(=O)c1ccccc1O2 (centres unmarked) [CBK283390] | 109
5 | CC(C)n1cc(C(=O)N2CCC(c3cc4ncccc4[nH]3)CC2)cn1 [CBK283392] | 95.6
6 | O=C(Cc1cccs1)N1CCC(c2cc3ncccc3[nH]2)CC1 [CBK283393] | 86.5
7 | O=C(c1cscn1)N1CCCCC1c1nc2ccccc2[nH]1 (centres unmarked) [CBK283394] | 91
8 | COc1cccc(C(=O)N2CCC(c3cc4ncccc4[nH]3)CC2)c1 [CBK283398] | 117
9 | Cn1cc2c(n1)[C@H]1CN(C(=O)c3cc(C(F)(F)F)n(C)n3)C[C@H]1C2 [CBK283399] | 88.5
10 | CC(=O)Nc1ccc(CN2CCCC(c3cc4ncccc4[nH]3)C2)cc1 (centres unmarked) [CBK283402] | 92.4
11 | Cc1cc(-c2cn(C)nc2C2CCCCN2C(=O)C2CCC2)on1 (centres unmarked) [CBK283403] | 83.7
12 | Cc1cc(-c2cn(C)nc2C2CCCCN2C(=O)C2CCCC2)on1 (centres unmarked) [CBK283404] | 96.9
13 | CCCC(=O)N1CCCCC1c1nn(C)cc1-c1cc(C)no1 (centres unmarked) [CBK283407] | 106
14 | Cc1noc(-c2cn(C)nc2C2CCCCN2CC2CC2)c1C (centres unmarked) [CBK283408] | 88.1
15 | CCCC(=O)N1CCCCC1c1nn(C)cc1-c1onc(C)c1C (centres unmarked) [CBK283409] | 80.5
16 | CCC(=O)N1CCCCC1c1nn(C)cc1-c1onc(C)c1C (centres unmarked) [CBK283411] | 80.5
17 | Cn1ccc(C(=O)N2CCCC(c3cc4ncccc4[nH]3)C2)n1 (centres unmarked) [CBK283412] | 89.8
18 | CC(C)(C)OC(=O)N1CCC(c2cc(=O)n3c(n2)CCCCC3)C1 (centres unmarked) [CBK283415] | 88.4
19 | COc1cccc(C(=O)N2CCCC(c3cc4ncccc4[nH]3)C2)c1 (centres unmarked) [CBK283416] | 104
20 | COc1ccc(CC(=O)N2CCCC(c3cc4ncccc4[nH]3)C2)cc1 (centres unmarked) [CBK283418] | 94.5
21 | CC(C)n1cc(C(=O)N2CCCC(c3cc4ncccc4[nH]3)C2)cn1 (centres unmarked) [CBK283419] | 88.2
22 | COc1ccc(CC(=O)N2CCC(c3cc4ccccc4cn3)C2)cc1 (centres unmarked) [CBK283421] | 105

Row | Compound | viability at 28.5 h, 10 µM [%]
23 | Cc1cc(O)cc(C2CCCN(C(=O)CC3CCCC3)C2)n1 (centres unmarked) [CBK283422] | 107
24 | Cc1csc(C(=O)N2CCCC(c3cc(O)cc(C)n3)C2)c1 (centres unmarked) [CBK283423] | 89.5
25 | COc1ccc(C(=O)N2C[C@H]3Cc4c(n[nH]c4C(F)F)[C@H]3C2)s1 [CBK283425] | 95.4
26 | O=C(CC1CCCCC1)N1CCCC1c1n[nH]cc1-c1ccncc1 (centres unmarked) [CBK283429] | 90.4
27 | Cc1ccccc1CC(=O)N1CCCC1c1n[nH]cc1-c1ccncc1 (centres unmarked) [CBK283431] | 87.7
28 | Cc1nc(C)c(C(=O)N2CCC(c3cc4cnccc4[nH]3)CC2)s1 [CBK283432] | 102
29 | O=C(c1ccccc1)N1CCCC1c1n[nH]cc1-c1ccncc1 (centres unmarked) [CBK283433] | 88.5
30 | O=C(Cc1ccccc1)N1CCCC1c1n[nH]cc1-c1ccncc1 (centres unmarked) [CBK283435] | 85.7
31 | Cc1cc(O)cc(C2CCCN(C(=O)c3cccc(F)c3)C2)n1 (centres unmarked) [CBK283440] | 100
32 | Cn1ccnc1C(=O)N1C[C@H]2CCc3c(n[nH]c3C(F)(F)F)[C@H]2C1 [CBK283441] | 101
33 | Cc1cc(Oc2ccc(N(C)C)cc2)cc(C2CCCNC2)n1 (centres unmarked) [CBK283442] | 101
34 | Cn1cc(-c2ccncc2)c(C2CCCCN2C(=O)c2ccccc2)n1 (centres unmarked) [CBK283444] | 75.7
35 | O=C(c1ccc(F)cc1)N1CCC(c2cc3cnccc3[nH]2)CC1 [CBK283445] | 87.3
36 | CN(C)c1ccc(C(=O)N2CCC(c3cc4cnccc4[nH]3)CC2)cc1 [CBK283446] | 83.8
37 | O=C(COc1ccccc1)N1CCC(c2cc3cnccc3[nH]2)CC1 [CBK283449] | 97.6
38 | COCCC(=O)N1C[C@@H](c2cccc(F)c2)[C@@]2(CCCC(=O)N2)C1 [CBK283450] | 88.1
39 | CCC(CC)C(=O)N1CCCC1c1nn(C)cc1-c1cc(C)no1 (centres unmarked) [CBK283452] | 84.5
40 | Cc1cc(-c2cn(C)nc2C2CCCN2C(=O)CC(C)(C)C)on1 (centres unmarked) [CBK283453] | 87.3
41 | COc1ccccc1C(=O)N1CCC[C@@H](N)[C@@H]1c1ccccc1F [CBK283458] | 86
42 | N[C@@H]1CCCN(Cc2ccncc2)[C@H]1c1ccccc1F [CBK283459] | 88.4
43 | Cc1ncsc1C(=O)N1CCCC(c2cc3cnccc3[nH]2)C1 (centres unmarked) [CBK283461] | 94
44 | CC(C)(C)OC(=O)N1CCC[C@]2(CCC(=O)N2)[C@H]1c1ccc(F)cc1 [CBK283462] | 86.1

Row | Compound | viability at 28.5 h, 10 µM [%]
45 | Fc1ccc(-c2c[nH]nc2C2CCOCC2)cc1 [CBK283464] | 103
46 | Fc1cccc(-c2c[nH]nc2C2CCOCC2)c1 [CBK283465] | 91
47 | CCC(CC)C(=O)N1CCCC1c1n[nH]cc1-c1ccncc1 (centres unmarked) [CBK283467] | 87.9
48 | CC(=O)N1CCCC(c2[nH]c3cccnc3c2CN(C)C)C1 (centres unmarked) [CBK283469] | 89.1
49 | CN(C)Cc1cc(-c2ccccc2F)nn1CCNC(=O)C1CCC1 [CBK283471] | 93.1
50 | Cc1cccc(CC(=O)N2CCCC2c2ccnc3cc(C)nn23)c1 (centres unmarked) [CBK283472] | 105
51 | CN1C(=O)c2ccccc2C(=O)[C@@]2(C)CN(C3CCCC3)C[C@@H]12 [CBK283476] | 83.3
52 | CCN1C(=O)c2ccccc2C(=O)[C@@]2(C)CN(CC(C)C)C[C@@H]12 [CBK283479] | 102
53 | CN1C[C@H]2N(C)C(=O)c3ccccc3C(=O)[C@@]2(C)C1 [CBK283482] | 86.7
54 | CN(C(=O)C1CCCO1)c1nc2c(s1)CCc1occc1-2 (centres unmarked) [CBK283483] | 88.8
55 | COc1ccc(NCc2cc3sccc3n2C)cc1OC [CBK283486] | 87
56 | Fc1ccc(CNc2c(-c3cccs3)nc3cnccn23)cc1 [CBK283487] | 112
57 | O=C1NC2=C(C(=O)N(CCN3CCCC3)C2)C(c2ccccc2)N1 (centres unmarked) [CBK283493] | 103
58 | c1coc(CNc2c(-c3ccco3)nc3cnccn23)c1 [CBK283496] | 103
59 | O=C(CN1CCC(O)(Cc2ccccc2)CC1)N1CCCCCC1 [CBK283500] | 96.9
60 | O=C(CN1CCC(c2ccc(F)cc2)CC1)N1CCCC1 [CBK283502] | 98.7
61 | CCN(CC)C(=O)N1CCC(c2ccncc2)CC1 [CBK283503] | 101
62 | O=C(CN1CCC(c2ccncc2)CC1)N1CCCCC1 [CBK283504] | 102
63 | c1ccc(CN2CCC(c3ccncc3)CC2)nc1 [CBK283505] | 101
64 | O=C(c1cccnc1)C1CCN(C(=O)Cc2cccc(F)c2)CC1 [CBK283506] | 101
65 | COC(=O)[C@H]1CN(C(=O)CN2CCCC2=O)C[C@@H]1c1ccc(F)cc1 [CBK283507] | 93.3
